Assay results published in patent US20120196899A1, “METHODS AND PRODUCTS FOR TREATING INFLAMMATION” (Rock Creek Pharmaceuticals, Inc., priority 2010, published 2012).
Where “and” joins values, the source holds several entries; their conditions need not be identical. Equal values may be shown once.

Tests used:
[1] = tested on: TNFα-induced NFκB activity; test: NFκB luciferase assay (inhibition of TNFα-induced NFκB activity) in HEK293 reporter cells; type: cell-based, Human; settings: HEK293 reporter cells challenged with TNFα for three hours
Protocol: The smokeless tobacco used in these experiments was plain long-leaf Copenhagen tobacco purchased from a local vendor. Crude extract was extracted with methanol and water and clarified by centrifugation and filtration. The alkaloid extract was prepared from sodium hydroxide and methanol extraction, organic phase separation and purification. All treatment samples were prepared as a function of weight (μg/ml), and all samples were diluted in DMSO.
Human […] kidney cells (HEK293) transfected with an NFκB luciferase reporter were challenged with TNFα for three hours, then samples were applied to the challenged cells.

[2] = Body weights, weight gain and food consumption over 14 days after single i.v. dose; type: in vivo, Sprague-Dawley rats; settings: for Mean food consumption/day / Mean weigth increase by day 14 / day 13 B.W. / day 14 B.W. / B.W. day 1 / B.W. day 2 / B.W. day 3 / B.W. day 4 / B.W. day 5 / B.W. day 6 / B.W. day 7 / B.W. day 8 / B.W. day 9 / B.W. day 10 / B.W. day 11 / B.W. day 12: nicotine 0.75 mg/kg single i.v.; for day 13 B.W. / day 14 B.W. / B.W. day 1 / B.W. day 2 / B.W. day 3 / B.W. day 4 / B.W. day 5 / B.W. day 6 / B.W. day 7 / B.W. day 8 / B.W. day 9 / B.W. day 10 / B.W. day 11 / B.W. day 12 / Average Daily Food Consumption per Rat: tartrate; for B.W. day 1 / B.W. day 2 / B.W. day 3 / B.W. day 4 / B.W. day 5 / B.W. day 6 / B.W. day 7 / B.W. day 8 / B.W. day 9 / B.W. day 10 / B.W. day 11 / B.W. day 12: individual animals; for Average Daily Food Consumption per Rat: nicotine 0.75 mg/kg, per cage (cage 1, 2)
Protocol: (§1) Body weight and food consumption was measured daily for 14 days. On day 15, urine was collected on all surviving animals. The animals were euthanized and bled via cardiac puncture, and blood was collected for analysis. Tissues were collected, weighed, evaluated for gross abnormalities, and stored in 10% neutral-buffered formalin.
All animals were observed daily.

[3] = Necropsy observations and organ weights, day 15; type: in vivo, Sprague-Dawley rats
Protocol: as §1
On day 15, urine was collected on all surviving animals for urinalysis. The animals were euthanized and bled via cardiac puncture. Blood was collected for hematology, clinical chemistry, and coagulation analysis. Tissues were collected, weighed, and stored in 10% neutral-buffered formalin for possible future analysis.

nAChR α4/β2 = biological target: T1, nAChR α4/β2 (Homo sapiens, UniProt P17787+P43681); type: cell-based; settings: 100 μM Ach + 0.3 μM epibatidine; not concentration-dependent, IC50 not determinable
T1 construct: host or cells: HEK293 cells, transient transfection
Protocol: The following three (3) channels were evaluated: • 1. nAChR α3/β4 (encoded by the human CHRNA3 and CHRNB4 gene and stably expressed in CHO cells); • 2. nAChR α4/β2 (CHRNA4 and CHRNB2 gene and transiently expressed in HEK293 cells); and • 3. nAChR α7 (encoded by the human nicotinic α7 gene coexpressed in CHO cells with the chaperone RIC-3 encoded by the human RIC3 gene).
The ability of each test article to act as an agonist, a positive allosteric modulator or antagonist of three nAChR receptor channels was evaluated in the presence of 0.1 atropine. Both test articles were evaluated for responses on each nAChR channel at eight (8) concentrations: 0.3, 1, 3, 10, 30, 100, 300, and 1000 μM (n=4 for each concentration).
HEK293 or CHO cells were transiently or stably transfected with the appropriate human ion channel cDNAs. Stable transfectants were selected by coexpression with the antibiotic-resistance gene(s) incorporated into the expression plasmid(s). […]
For FLIPR TETRA™ assay, cells were plated in 384-well black wall, flat clear bottom microtiter plates (Type: BD Biocoat Poly-D-Lysine Multiwell Cell Culture Plate) at 20,000 to 30,000 cells per well (384-well plate). Cells were incubated at 37° C. overnight or until the cells reached a sufficient density in the wells (near confluent monolayer) to use in fluorescence assays. […]

nAChR α7 = biological target: T2, nAChR α7 (Homo sapiens, UniProt P36544); test: nAChR α7 channel agonist assay (FLIPR, with PNU-120596); type: cell-based; settings: with 10 μM PNU-120596; maximal stimulation not achieved
T2 construct: host or cells: CHO cells
Protocol: Therefore, the assay of agonist activity for either Ach or for the test articles was conducted in the presence of the positive allosteric modulator.

nAChR α3/β4 = nAChR α3/β4 (Homo sapiens, UniProt P30926+P32297)
Protocol: HEK293 or CHO cells were transiently or stably transfected with the appropriate human ion channel cDNAs. Stable transfectants were selected by coexpression with the antibiotic-resistance gene(s) incorporated into the expression plasmid(s). Selection pressure was maintained by including selection antibiotics in the culture medium. HEK293 cells were cultured in Dulbecco's Modified Eagle Medium/Nutrient Mixture F-12 (D-MEM/F-12) supplemented with 10% fetal bovine serum, 100 U/mL penicillin G sodium, 100 g/mL streptomycin sulfate and appropriate selection antibiotics. CHO cells were cultured in Ham's F-12 supplemented with 10% fetal bovine serum, 100 U/mL penicillin G sodium, 100 g/mL streptomycin sulfate and appropriate selection antibiotics.
For FLIPR TETRA™ assay, cells were plated in 384-well black wall, flat clear bottom microtiter plates (Type: BD Biocoat Poly-D-Lysine Multiwell Cell Culture Plate) at 20,000 to 30,000 cells per well (384-well plate). Cells were incubated at 37° C. overnight or until the cells reached a sufficient density in the wells (near confluent monolayer) to use in fluorescence assays. For α4β2 assay, cells were incubated at 27° C. for at least 7 hours before use.
Experiments were performed with either the FLIPR calcium sensitive dye kit (Fluo-8, ABDbioquest, for nAChR α3/β4 and nAChR α7) or FLIPR membrane potential kit (Molecular Devices, for nAChR α4/β2) according to the manufacturer's instructions. Briefly, cells were incubated with 201 dye for 30 min at 37° C. After dye loading period, for the agonist assay, 5 μl of the test, vehicle, or control articles at concentration of 5 times of final concentration were applied to the cells without stimulation. For the positive allosteric modulation (PAM) and antagonist assay, after test article application, the cells were stimulated with either low dose (for PAM) or high dose (for antagonist) of Ach.
The signal elicited in the presence of the positive control agonist and allosteric modulator (10 μM Ach+1 μM epibatidine) was set to 100% and the signal from the agonist control (10 μM Ach) was set to 0%.

[4] = Group E, 0.75 mg/kg, females, individual animals, tartrate, 0.75 mg/kg
[5] = Group E, 0.75 mg/kg, males, individual animals, tartrate, 0.75 mg/kg
[6] = female animals, 0.75 mg/kg, group mean
[7] = nicotine 0.75 mg/kg single i.v., male rats

T2 sequence (P36544 23-502): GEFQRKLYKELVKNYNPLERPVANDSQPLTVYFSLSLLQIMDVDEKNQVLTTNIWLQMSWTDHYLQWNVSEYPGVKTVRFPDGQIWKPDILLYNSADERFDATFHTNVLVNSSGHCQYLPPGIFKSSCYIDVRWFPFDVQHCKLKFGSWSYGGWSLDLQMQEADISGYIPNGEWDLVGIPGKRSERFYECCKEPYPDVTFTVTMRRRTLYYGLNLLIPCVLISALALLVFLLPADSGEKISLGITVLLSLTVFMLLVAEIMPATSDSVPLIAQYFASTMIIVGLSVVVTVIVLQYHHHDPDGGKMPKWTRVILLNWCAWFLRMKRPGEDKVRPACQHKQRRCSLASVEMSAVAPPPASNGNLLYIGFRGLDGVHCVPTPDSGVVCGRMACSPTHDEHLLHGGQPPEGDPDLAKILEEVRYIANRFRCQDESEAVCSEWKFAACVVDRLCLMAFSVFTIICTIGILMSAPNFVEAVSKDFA
T1 sequence (P17787 26-502): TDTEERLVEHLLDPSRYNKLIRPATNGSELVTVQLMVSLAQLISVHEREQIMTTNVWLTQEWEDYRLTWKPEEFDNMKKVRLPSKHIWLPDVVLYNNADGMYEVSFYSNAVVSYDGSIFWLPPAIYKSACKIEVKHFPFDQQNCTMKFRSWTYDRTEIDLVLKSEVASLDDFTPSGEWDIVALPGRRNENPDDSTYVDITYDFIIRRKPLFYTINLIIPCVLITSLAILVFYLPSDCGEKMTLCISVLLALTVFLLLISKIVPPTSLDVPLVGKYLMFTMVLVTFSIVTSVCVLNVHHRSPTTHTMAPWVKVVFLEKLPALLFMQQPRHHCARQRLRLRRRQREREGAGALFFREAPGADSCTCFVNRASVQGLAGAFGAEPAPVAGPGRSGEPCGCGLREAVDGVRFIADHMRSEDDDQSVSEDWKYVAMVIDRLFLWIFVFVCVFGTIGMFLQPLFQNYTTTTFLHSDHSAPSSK
T1 sequence (P43681 29-627): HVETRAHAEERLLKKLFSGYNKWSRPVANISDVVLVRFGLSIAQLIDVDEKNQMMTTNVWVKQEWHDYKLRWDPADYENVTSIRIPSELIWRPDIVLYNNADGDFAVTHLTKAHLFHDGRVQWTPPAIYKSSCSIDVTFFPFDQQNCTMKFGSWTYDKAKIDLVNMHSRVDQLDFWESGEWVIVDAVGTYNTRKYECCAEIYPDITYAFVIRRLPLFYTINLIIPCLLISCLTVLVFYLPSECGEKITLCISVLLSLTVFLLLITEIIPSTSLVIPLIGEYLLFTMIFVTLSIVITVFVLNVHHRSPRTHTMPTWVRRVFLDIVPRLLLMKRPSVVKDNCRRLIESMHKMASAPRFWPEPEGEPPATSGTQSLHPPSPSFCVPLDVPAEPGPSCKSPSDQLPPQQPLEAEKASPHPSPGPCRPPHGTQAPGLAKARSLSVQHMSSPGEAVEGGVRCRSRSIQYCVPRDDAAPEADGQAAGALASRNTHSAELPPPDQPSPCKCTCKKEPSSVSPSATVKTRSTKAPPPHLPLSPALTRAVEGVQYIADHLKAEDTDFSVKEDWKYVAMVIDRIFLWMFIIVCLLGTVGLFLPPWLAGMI
Chain of nAChR α3/β4 (P32297 32-505): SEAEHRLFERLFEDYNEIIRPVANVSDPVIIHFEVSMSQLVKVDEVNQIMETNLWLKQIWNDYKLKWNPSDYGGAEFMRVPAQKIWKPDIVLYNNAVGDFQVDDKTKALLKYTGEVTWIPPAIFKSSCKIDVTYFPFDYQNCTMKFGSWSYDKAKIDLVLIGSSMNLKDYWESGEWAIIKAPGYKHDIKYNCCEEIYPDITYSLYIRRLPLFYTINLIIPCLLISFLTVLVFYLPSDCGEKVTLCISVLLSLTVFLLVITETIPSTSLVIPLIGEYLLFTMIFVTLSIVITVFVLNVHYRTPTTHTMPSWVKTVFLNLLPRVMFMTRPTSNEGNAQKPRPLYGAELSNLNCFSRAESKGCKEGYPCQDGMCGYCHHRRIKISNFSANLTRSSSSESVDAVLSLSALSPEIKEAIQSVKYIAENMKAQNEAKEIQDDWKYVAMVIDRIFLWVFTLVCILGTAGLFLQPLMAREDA
Chain of nAChR α3/β4 (P30926 22-498): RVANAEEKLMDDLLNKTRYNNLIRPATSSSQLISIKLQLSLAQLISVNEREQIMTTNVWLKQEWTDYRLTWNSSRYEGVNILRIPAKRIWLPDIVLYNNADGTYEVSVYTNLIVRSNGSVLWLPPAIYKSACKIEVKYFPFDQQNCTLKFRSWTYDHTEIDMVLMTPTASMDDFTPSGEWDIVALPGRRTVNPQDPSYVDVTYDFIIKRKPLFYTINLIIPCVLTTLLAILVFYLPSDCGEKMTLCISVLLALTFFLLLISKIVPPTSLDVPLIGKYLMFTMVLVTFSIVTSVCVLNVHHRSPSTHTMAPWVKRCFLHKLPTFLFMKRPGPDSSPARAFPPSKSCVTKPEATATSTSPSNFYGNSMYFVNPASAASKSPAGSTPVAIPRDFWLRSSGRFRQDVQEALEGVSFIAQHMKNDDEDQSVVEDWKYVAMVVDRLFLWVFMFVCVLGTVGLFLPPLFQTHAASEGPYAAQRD

## CN1CCCC1c1cccnc1.O=C(O)C(O)C(O)C(=O)O (single isomer, unassigned; (-)) [Nicotine, (−) Nicotine hydrogen tartrate, reference compound]
[1]
  TNFα-induced NFκB-mediated transcription of luciferase: reduce TNFα-induced NFκB-mediated transcription
[2]; Female
  Mean food consumption/day: 20.6 g
  Mean weigth increase by day 14: 40.8 g
[2]; Male
  Mean food consumption/day: 26.4 g
  Mean weigth increase by day 14: 98.5 g
[2]; individual female rats
  day 13 B.W.: 232.6 g and 251.8 g and 227.3 g
  day 14 B.W.: 230.4 g and 249 g and 229 g
[2]; individual male rats
  day 13 B.W.: 330 g and 312.3 g and 292.4 g and 299.4 g
  day 14 B.W.: 339.2 g and 316.1 g and 297.6 g and 305 g
[2]; day 1, female rats
  B.W. day 1: 191.6 g and 206.1 g and 192.8 g
[2]; day 1, male rats
  B.W. day 1: 227 g and 228 g and 223 g and 219 g
[2]; day 2, female rats
  B.W. day 2: 190.5 g and 213.4 g and 195.7 g
[2]; day 2, male rats
  B.W. day 2: 234.9 g and 239.1 g and 229.5 g and 229.1 g
[2]; day 3, female rats
  B.W. day 3: 198 g and 217.1 g and 199.1 g
[2]; day 3, male rats
  B.W. day 3: 243 g and 245.1 g and 241.1 g and 238.4 g
[2]; day 4, female rats
  B.W. day 4: 207.8 g and 223.8 g and 205.6 g
[2]; day 4, male rats
  B.W. day 4: 260.5 g and 263.4 g and 257.6 g and 252.9 g
[2]; day 5, female rats
  B.W. day 5: 212.3 g and 226.3 g and 206.4 g
[2]; day 5, male rats
  B.W. day 5: 272.1 g and 269.1 g and 260.7 g and 258.7 g
[2]; day 6, female rats
  B.W. day 6: 207 g and 228.9 g and 205.5 g
[2]; day 6, male rats
  B.W. day 6: 259 g and 275.4 g and 270 g and 262.8 g
[2]; day 7, female rats
  B.W. day 7: 213 g and 240.1 g and 218.3 g
[2]; day 7, male rats
  B.W. day 7: 279.9 g and 295.8 g and 288 g and 277.8 g
[2]; day 8, female rats
  B.W. day 8: 218 g and 237.4 g and 217.4 g
[2]; day 8, male rats
  B.W. day 8: 284 g and 293.7 g and 285.6 g and 278 g
[2]; day 9, female rats
  B.W. day 9: 219.1 g and 236.4 g and 213.2 g
[2]; day 9, male rats
  B.W. day 9: 274.9 g and 303.5 g and 285.6 g and 274.6 g
[2]; day 10, female rats
  B.W. day 10: 221.8 g and 240.1 g and 220.5 g
[2]; day 10, male rats
  B.W. day 10: 286.1 g and 314.2 g and 301 g and 283.4 g
[2]; day 11, female rats
  B.W. day 11: 222.8 g and 244.5 g and 226 g
[2]; day 11, male rats
  B.W. day 11: 292.2 g and 317.7 g and 300.1 g and 291.5 g
[2]; day 12, female rats
  B.W. day 12: 232.1 g and 248.9 g and 227.7 g
[2]; day 12, male rats
  B.W. day 12: 290.7 g and 329.5 g and 303 g and 287.3 g
[2]; female, day 1
  Average Daily Food Consumption per Rat: 23.7 grams and 14.8 grams
[2]; female, day 2
  Average Daily Food Consumption per Rat: 18.4 grams and 24.9 grams
[2]; female, day 3
  Average Daily Food Consumption per Rat: 22.2 grams and 22.3 grams
[2]; female, day 4
  Average Daily Food Consumption per Rat: 19.4 grams and 15.8 grams
[2]; female, day 5
  Average Daily Food Consumption per Rat: 18.7 grams and 16.2 grams
[2]; female, day 6
  Average Daily Food Consumption per Rat: 20.0 grams and 17.2 grams
[2]; female, day 7
  Average Daily Food Consumption per Rat: 19.4 grams and 21.7 grams
[2]; female, day 8
  Average Daily Food Consumption per Rat: 20.1 grams and 20.6 grams
[2]; female, day 9
  Average Daily Food Consumption per Rat: 24.4 grams and 21.5 grams
[2]; female, day 10
  Average Daily Food Consumption per Rat: 22.6 grams and 20.4 grams
[2]; female, day 11
  Average Daily Food Consumption per Rat: 20.4 grams and 20.3 grams
[2]; female, day 12
  Average Daily Food Consumption per Rat: 22.5 grams and 21.7 grams
[2]; female, day 13
  Average Daily Food Consumption per Rat: 23.7 grams and 21.2 grams
[2]; female, day 14
  Average Daily Food Consumption per Rat: 24.4 grams and 19.6 grams
[2]; males, day 1
  Average Daily Food Consumption per Rat: 20.8 grams and 19.3 grams
[2]; males, day 2
  Average Daily Food Consumption per Rat: 26.2 grams and 23.5 grams
[2]; males, day 3
  Average Daily Food Consumption per Rat: 26.6 grams and 26.2 grams
[2]; males, day 4
  Average Daily Food Consumption per Rat: 26.2 grams and 23.7 grams
[2]; males, day 5
  Average Daily Food Consumption per Rat: 25.1 grams and 21.9 grams
[2]; males, day 6
  Average Daily Food Consumption per Rat: 23.8 grams and 25.9 grams
[2]; males, day 7
  Average Daily Food Consumption per Rat: 26.5 grams and 27.9 grams
[2]; males, day 8
  Average Daily Food Consumption per Rat: 24.0 grams and 28.2 grams
[2]; males, day 9
  Average Daily Food Consumption per Rat: 27.3 grams and 26.1 grams
[2]; males, day 10
  Average Daily Food Consumption per Rat: 29.6 grams and 30.9 grams
[2]; males, day 11
  Average Daily Food Consumption per Rat: 30.1 grams and 29.1 grams
[2]; males, day 12
  Average Daily Food Consumption per Rat: 26.5 grams and 23.4 grams
[2]; males, day 13
  Average Daily Food Consumption per Rat: 31.9 grams and 28.4 grams
[2]; males, day 14
  Average Daily Food Consumption per Rat: 32.7 grams and 26.4 grams
[3]; [4]
  Tissue Collection Weights: Brain: 1.77 g and 1.93 g and 1.87 g
  Tissue Collection Weights: Heart: 1.09 g and 1.06 g and 0.83 g
  Tissue Collection Weights: Kidneys: 2.34 g and 2.29 g (2×)
  Tissue Collection Weights: Liver: 9.48 g and 10.11 g and 9.18 g
  Tissue Collection Weights: Lungs: 1.20 g and 1.48 g and 1.28 g
  Tissue Collection Weights: Ovaries/uterus: 1.59 g and 0.92 g and 1.32 g
  Tissue Collection Weights: Small intestine: 0.41 g and 0.40 g and 0.28 g
  Tissue Collection Weights: Spleen: 0.46 g (2×) and 0.76 g
  Tissue Collection Weights: Thymus: 0.54 g and 0.48 g (2×)
[3]; [5]
  Tissue Collection Weights: Brain: 2.06 g and 1.90 g and 1.84 g and 1.94 g
  Tissue Collection Weights: Heart: 1.20 g and 1.17 g and 1.21 g and 1.42 g
  Tissue Collection Weights: Kidneys: 3.19 g and 3.04 g and 2.87 g and 3.01 g
  Tissue Collection Weights: Liver: 11.97 g and 12.52 g and 12.06 g
  Tissue Collection Weights: Lungs: 1.84 g and 1.49 g and 1.62 g and 1.66 g
  Tissue Collection Weights: Prostate: 0.41 g and 0.28 g (2×) and 0.45 g
  Tissue Collection Weights: Small intestine: 0.71 g and 0.56 g and 0.53 g and 0.40 g
  Tissue Collection Weights: Spleen: 0.81 g and 0.62 g and 0.78 g and 0.86 g
  Tissue Collection Weights: Testes: 3.05 g and 3.13 g and 3.02 g and 2.92 g
  Tissue Collection Weights: Thymus: 0.54 g and 0.46 g and 0.56 g and 0.76 g
[3]; [6]
  Organ Weight Brain: 1.86 g
  Organ Weight Heart: 0.99 g
  Organ Weight Kidneys: 2.31 g
  Organ Weight Liver: 9.59 g
  Organ Weight Lungs: 1.32 g
  Organ Weight Ovaries/uterus: 1.28 g
  Organ Weight Small intestine: 0.36 g
  Organ Weight Spleen: 0.56 g
  Organ Weight Thymus: 0.50 g
[3]; [7]
  Organ Weight Brain, Mean: 1.94 g
  Organ Weight Heart, Mean: 1.25 g
  Organ Weight Kidneys, Mean: 3.03 g
  Organ Weight Liver, Mean: 12.69 g
  Organ Weight Lungs, Mean: 1.65 g
  Organ Weight Prostate, Mean: 0.36 g
  Organ Weight Small intestine, Mean: 0.55 g
  Organ Weight Spleen, Mean: 0.77 g
  Organ Weight Testes, Mean: 3.03 g
  Organ Weight Thymus, Mean: 0.58 g
nAChR α4/β2
  inhibition of receptor activity: inhibited receptor activity
nAChR α7
  agonist activity: showed agonist activity
nAChR α3/β4
  potentiation: Neither nicotine nor anatabine potentiated the activity
